Measured values taken from patent publication US20240091319A1, “DUAL-ADMINISTRATION METHODS FOR TREATING RESPIRATORY DISTRESS” (THE TRUSTEES OF THE STEVENS INSTITUTE OF TECHNOLOGY, priority 2021, published 2024).
Where no end group is shown, it is not given here. The star is where a group is joined. Biotin = O=C1N[C@H]2[C@H](CS[C@H]2CCCCC(=O)*)N1

Assays:
[1] = test system: alveoli of isolated rat lungs; test: Surface tension determination in the isolated adult rat lung (Method 1), solutions injected into alveoli in situ; conditions: for surface tension (T): alveolar administration
Experimental: Method 1. Surface tension determination in the isolated adult rat lung. In an isolated (excised) adult rat lung, the alveolar liquid is labeled with a fluorescent dye verified not to alter surface tension. T is determined as follows at a curved region of the alveolar air-liquid interface (e.g., the meniscus in a flooded alveolus or the corner of an aerated alveolus). Alveolar air pressure is determined with a transducer at the trachea of the constantly-inflated lung. Alveolar liquid phase pressure is determined by servo-nulling pressure measurement. The three-dimensional interfacial radius of curvature is determined by confocal microscopy. The surface tension is calculated according to the Laplace relation.
Alveoli of isolated rat lungs were injected (or flooded) in situ with various solutions or components and the effects on alveolar surface tension were compared. The accompanying FIG. 1 includes a composite bar chart comparing T values resulting from treatment with various solutions or components. Details, including the compositions and concentrations of any administered solutions or components, are shown below the x-axis of the chart. In more detail, the rat lungs were micropunctured, optionally flooded with red blood cell (RBC) homogenate alone, with albumin, or with albumin and SRB. […] Half of these samples receiving the second injection were additionally subjected to 50 ventilation cycles at the noted pressures. Additional experimental details are described in the Methods section of Nguyen, T L and Perlman, C E, “Sulforhodamine B and exogenous surfactant effects on alveolar surface tension under acute respiratory distress syndrome conditions,” J. Appl. Physiol. 2020, 129(6), 1505-1513, the entire content of which is incorporated herein by reference.
With reference to the accompanying FIG. 1 and its chart, the first data point (bar) corresponds to normal, aerated alveoli in normal lungs, as a control. The red blood cell homogenate was added to the remaining data points to simulate epithelial damage and hemorrhaging of the alveolar capillaries, as may be present in some cases of ARDS.

[2] = test system: alveoli of isolated rat lungs; conditions: injected into alveoli of isolated lungs in situ; SRB 1 nM-1,000 nM with albumin 3-12 w/v % in alveolar liquid; cited from earlier work
[3] = test system: alveolar-capillary barrier of heterogeneously flooded regions, isolated adult rat lung; conditions: injected into alveoli of isolated lungs in situ; SRB 1 nM-1,000 nM with albumin 3-12 w/v % in alveolar liquid; cited from earlier work
[4] = test system: lungs; conditions: administered to the lungs; U.S. Pat. Nos. 9,504,796 and 9,693,990; cited from earlier work
[5] = test system: rats with model lung injury; test: Therapeutic IV SRB administration in vivo in rats with model lung injury (injurious ventilation, then 4-hr support); conditions: rat, target plasma concentration 10 nM
Experimental: The therapeutic efficiencies of clinical method analogues, including tracheal instillation, intravascular (IV) administration, etc. of various surface tension-lowering components can be tested in an animal following generation of model lung injury in the animal. For example, therapeutic IV SRB administration was tested in vivo in rats with model lung injury, as follows. All animals were handled in accord with a protocol approved by the Stevens Institute of Technology Institutional Animal Care and Use Committee. First, the model lung injury was generated by ventilating an anesthetized rat with an excessive tidal (breath) volume (VT) of 42 ml/kg body weight and an end-expiratory pressure of zero for 15 min to physically injure the lungs. Then, modeling clinical treatment of a patient with lung injury, VT was reduced to a protective level of 6 ml/kg, end-expiratory pressure was increased to a positive, protective level of 2 or 10 cm H2O, and the rat continued to be supported by mechanical ventilation for 4 hrs. SRB was administered IV, targeting a plasma concentration of 10 nM, after the injury period and at the start of the support period, mimicking therapeutic administration after the development of respiratory distress but prior to supportive treatment by mechanical ventilation. Oxygenation was tracked during the 4-hr support period. At the end of the support period, the rat was sacrificed, the lungs were isolated, and alveolar T was determined in situ in the isolated lungs using Method 1, above. In lungs from rats sacrificed at the end of the 4-hr support period, T was determined in one aerated alveolus and one flooded alveolus.

[6] = test system: alveolar-capillary barrier of heterogeneously flooded regions, isolated adult rat lung; test: Ventilation 'injury score' in the isolated adult rat lung (Method 2); conditions: flooding solution in normal saline with 5% albumin; solutes at about the concentrations present in 1% SURVANTA; FIG. 2A
Source text: Solutes are at about the same concentrations as present in 1% […]® solution. The surfactant protein B (SP-B) and SP-C used are isolated from pulmonary alveolar proteinosis patients; the SP-C, thus, is likely a mixture of fully-, partially- and non-palmitoylated peptide. Two forms of synthetic SP-C are used. One is sSP-Cff-leuc. […] Due to pre-dissolution of certain solutes, at high concentration, in non-aqueous solvents, the final dipalmitoylphosphatidylcholine (DPPC) solution contains 2% methanol; the final SP-B and SP-C solutions contain 1.6% chloroform and 0.8% methanol; and the final sSP-Cff-leuc solution contains 1.3% chloroform and 1.3% ethanol.
Base solution for all groups is normal saline.
Method 2. Ventilation ‘injury score’ in the isolated adult rat lung. An isolated adult rat lung is perfused with a physiologic solution (i.e. the solution is pumped through the lung vessels, including the capillaries) containing a low concentration of a fluorescent dye verified not to alter surface tension. A surface alveolus of the lung is micropunctured and a non-fluorescent test solution is injected. In experimental regions, a sufficiently large volume of liquid is injected to generate a pattern of heterogeneous alveolar flooding; in control regions, a sufficiently small volume of liquid is injected so that the liquid spontaneously clears from the region, leaving behind a micropunctured-but-aerated region. The region is imaged by confocal microscopy over a five minute baseline period at a constant transpulmonary pressure of 5 cm H2O. Five ventilation cycles are supplied to the lung at 0.33 Hz with the equivalent of a positive end-expiratory pressure of 15 cm H2O and with a tidal volume of 6 ml/kg body weight. The lung is then returned to a constant transpulmonary pressure of 5 cm H2O and imaged for 10 additional minutes. Alveolar liquid fluorescence at all time points is normalized by capillary fluorescence.
At baseline, alveolar liquid fluorescence (in flooded alveoli of experimental regions or in the liquid lining layer of control, aerated regions) is low and constant in all regions. Following ventilation, alveolar liquid fluorescence remains unchanged in aerated regions but continually increases with time in heterogeneously flooded regions. […] The increase above baseline in normalized alveolar liquid fluorescence at the last time point of the experiment is used as an injury score. The injury score, which indicates the rate of increase of normalized fluorescence following ventilation, correlates with the surface tension of the test solution.

[7] = test system: immature fetal rat lung; test: Opening pressure of the immature fetal rat lung after tracheal instillation (Method 3); conditions: 4-5 μl instilled in trachea, embryonic day 18 or 19; with 5% albumin; 1% SURVANTA, 0.0005% SP-C; FIG. 3
Experimental: Solution (4-5 μl), with solutes as specified, is instilled in the trachea of the fluid-filled immature (embryonic day 18 or 19) fetal rat lung. The pressure required to inflate the fetal rat lung for the first time is proportional to surface tension. […] The sSP-Cff-ion lock used is not biotinylated and is dissolved directly in normal saline without additional solvents. n=1 or 2/group.
Method 3. Opening pressure of the immature fetal rat lung. To inflate the initially liquid-filled fetal lung for the first time, the pressure applied at the trachea must be sufficient to overcome a capillary force that is proportional to the surface tension of the liquid in the lung. Thus, following instillation of a test solution in the trachea of the immature fetal rat lung, the opening pressure of the lung is indicative of the surface tension of the test solution. At embryonic day 18 or 19 (term=day 22), a fetus is delivered from a pregnant rat by uterotomy. […] The opening pressure that causes air to flow into the lungs is recorded, and is proportional to the solution surface tension.

[8] = low concentrations, in the presence of albumin; reported in an earlier patent publication; cited from earlier work
[9] = test system: adult rat lung; test: Facilitation of dilute […] by negatively charged solutes in the adult rat lung; conditions: solute at 5 w/v %
Experimental: Method 1. […] Alveolar air pressure is determined with a transducer at the trachea of the constantly-inflated lung. Alveolar liquid phase pressure is determined by servo-nulling pressure measurement.

Molecule: CCN(CC)c1ccc2c(-c3ccc(S(=O)(=O)O)cc3S(=O)(=O)[O-])c3ccc(=[N+](CC)CC)cc-3oc2c1 [SRB, sulforhodamine B]
- speed of T lowering compared with exogenous surfactant ([1]; RBC homogenate plus albumin, FIG. 1): acts faster than exogenous surfactant
- surface tension (T) ([1]; T increased by cell debris): reduce T
- surface tension (T) ([1]; T increased by secretory phospholipase A2 (sPLA2)): reduce T
- alveolar surface tension (T) ([1]; alveoli flooded with RBC homogenate, albumin and SRB included, FIG. 1 bars 4, 7, 8): immediately decreased/normalized
- surface tension [2]: lower surface tension
- ventilation injury of flooded alveoli [3]: protect against ventilation injury of flooded alveoli
- redistribution of edema liquid among alveoli [4]: promoting equitable redistribution of edema liquid among alveoli
- surface tension [4]: capable of lowering surface tension
- plasma markers of lung injury and inflammation [5]: reduce plasma markers of lung injury and inflammation
- ventilation-induced lung injury (VILI) [5]: reduce VILI
- alveolar surface tension (T), determined in isolated lungs after sacrifice ([5]; after injury period, end of 4-hr support period): reduce surface tension specifically in flooded/injured alveoli
- oxygenation ([5]; tracked during 4-hr support period): improve oxygenation

Molecule: rhodamine WT
- redistribution of edema liquid among alveoli [4]: promoting equitable redistribution of edema liquid among alveoli
- surface tension [4]: capable of lowering surface tension

Molecule: CCCCCCCCCCCCCCCC(=O)OC[C@H](COP(=O)([O-])OCC[N+](C)(C)C)OC(=O)CCCCCCCCCCCCCCC [DPPC, dipalmitoylphosphatidylcholine, reference compound]
- injury score (thus surface tension) [6]: not those containing DPPC or SP-B

Molecule: GIPFFPVHLKRLLIVVVVVELIVKVIVGALLMGL (SEQ ID NO:3) (sSP-Cff-ion lock)
- opening pressure (proportional to surface tension), compared with 100% SURVANTA without albumin [7]: at least as effective as 100% SURVANTA in the absence of albumin
- surface tension in the lungs [8]: can lower surface tension in the lungs

Molecule: GIPFFPVHLKRLKLLLLLLLLILLLILGALLMGL (SEQ ID NO:2) (sSP-Cff-leuc)
- injury score (thus surface tension) [6]: lower injury score
- surface tension in the lungs [8]: can lower surface tension in the lungs

Molecule: fibrinogen
- facilitation of the surface activity of 1 vol % SURVANTA [9]: also facilitate 1 vol % SURVANTA®

Molecule: sSP-Cff-ion lock-B: variant of sSP-Cff-ion lock with a biotinylated N-terminal (Biotin-GIPFFPVHLKRLLIVVVVVELIVKVIVGALLMGL)
- injury score (thus surface tension) [6]: lower injury score
- surface tension in the lungs [8]: can lower surface tension in the lungs

B1: SP-B: surfactant protein B isolated from pulmonary alveolar proteinosis patients (protein, UniProt P07988 201-279, looked up)
Pulmonary …: FPIPLPYCWLCRALIKRIQAMIPKGALAVAVAQVCRVVPLVAGGICQCLAERYSVILLDTLLGRMLPQLVCRLVLRCSM
modifications: Pulmonary surfactant-associated protein B
notes: surfactant protein B isolated from pulmonary alveolar proteinosis patients
- injury score (thus surface tension) [6]: not those containing DPPC or SP-B
